#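 Exposure lasted 48 hours, with cells grown in 96-well plates and compounds tested at five concentrations. At the TGI there is no net growth.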
# Tests used:
# Test in all cases: inhibition of tumour cell growth, NCI panel, 48 h
# 786-0 renal = test system: 786-0 renal
# A498 renal = test system: A498 renal
# A549 NSCLC = test system: A549 NSCLC
# ACHN renal = test system: ACHN renal
# CAKI-1 renal = test system: CAKI-1 renal
# CCRF-CEM leukemia = test system: CCRF-CEM leukemia
# COLO 205 colon = test system: COLO 205 colon
# DLD-1 colon = test system: DLD-1 colon
# DMS 114 small cell lung = test system: DMS 114 small cell lung
# DMS 273 small cell lung = test system: DMS 273 small cell lung
# EKVX NSCLC = test system: EKVX NSCLC
# HCC-2998 colon = test system: HCC-2998 colon
# HCT-116 colon = test system: HCT-116 colon
# HCT-15 colon = test system: HCT-15 colon
# HL-60(TB) leukemia = test system: HL-60(TB) leukemia
# HOP-18 NSCLC = test system: HOP-18 NSCLC
# HOP-62 NSCLC = test system: HOP-62 NSCLC
# HOP-92 NSCLC = test system: HOP-92 NSCLC
# HT29 colon = test system: HT29 colon
# IGROV1 ovarian = test system: IGROV1 ovarian
# K-562 leukemia = test system: K-562 leukemia
# KM12 colon = test system: KM12 colon
# KM20L2 colon = test system: KM20L2 colon
# LOX IMVI melanoma = test system: LOX IMVI melanoma
# LXFL 529 NSCLC = test system: LXFL 529 NSCLC
# M14 melanoma = test system: M14 melanoma
# M19-MEL melanoma = test system: M19-MEL melanoma
# MALME-3M melanoma = test system: MALME-3M melanoma
# MOLT-4 leukemia = test system: MOLT-4 leukemia
# NCI-H226 lung = test system: NCI-H226 lung
# NCI-H23 lung = test system: NCI-H23 lung
# NCI-H460 lung = test system: NCI-H460 lung
# NCI-H522 lung = test system: NCI-H522 lung
# OVCAR-3 ovarian = test system: OVCAR-3 ovarian
# OVCAR-4 ovarian = test system: OVCAR-4 ovarian
# OVCAR-5 ovarian = test system: OVCAR-5 ovarian
# OVCAR-8 ovarian = test system: OVCAR-8 ovarian
# RPMI-8226 leukemia = test system: RPMI-8226 leukemia
# RXF 393 renal = test system: RXF 393 renal
# SF-268 CNS = test system: SF-268 CNS
# SF-295 CNS = test system: SF-295 CNS
# SF-539 CNS = test system: SF-539 CNS
# SK-MEL-2 melanoma = test system: SK-MEL-2 melanoma
# SK-MEL-28 melanoma = test system: SK-MEL-28 melanoma
# SK-MEL-5 melanoma = test system: SK-MEL-5 melanoma
# SK-OV-3 ovarian = test system: SK-OV-3 ovarian
# SN12C renal = test system: SN12C renal
# SNB-19 CNS = test system: SNB-19 CNS
# SNB-75 CNS = test system: SNB-75 CNS
# SNB-78 CNS = test system: SNB-78 CNS
# SR leukemia = test system: SR leukemia
# SW-620 colon = test system: SW-620 colon
# TK-10 renal = test system: TK-10 renal
# U251 CNS = test system: U251 CNS
# UACC-257 melanoma = test system: UACC-257 melanoma
# UACC-62 melanoma = test system: UACC-62 melanoma
# UO-31 renal = test system: UO-31 renal
# XF 498 CNS = test system: XF 498 CNS
# RXF-631 renal = test system: RXF-631 renal
smiles,measurement,setting,value
O=C(CSc1c2ccccc2nc2ccccc12)Nc1ccccc1-c1ccccc1NC(=O)CSc1c2ccccc2nc2ccccc12,TGI,786-0 renal,69.4 µM
same,TGI,A498 renal,> 93.4 µM
same,TGI,A549 NSCLC,> 100 µM
same,TGI,ACHN renal,> 100 µM
same,TGI,CAKI-1 renal,> 73.8 µM
same,TGI,CCRF-CEM leukemia,> 78.7 µM
same,TGI,COLO 205 colon,> 75 µM
same,TGI,DLD-1 colon,33.4 µM
same,TGI,DMS 114 small cell lung,46.8 µM
same,TGI,DMS 273 small cell lung,> 100 µM
same,TGI,EKVX NSCLC,> 76.6 µM
same,TGI,HCC-2998 colon,34.5 µM
same,TGI,HCT-116 colon,> 100 µM
same,TGI,HCT-15 colon,66.6 µM
same,TGI,HL-60(TB) leukemia,18.7 µM
same,TGI,HOP-18 NSCLC,> 100 µM
same,TGI,HOP-62 NSCLC,> 63.3 µM
same,TGI,HOP-92 NSCLC,96.1 µM
same,TGI,HT29 colon,> 100 µM
same,TGI,IGROV1 ovarian,42.8 µM
same,TGI,K-562 leukemia,> 30.1 µM
same,TGI,KM12 colon,> 62 µM
same,TGI,KM20L2 colon,> 100 µM
same,TGI,LOX IMVI melanoma,39.1 µM
same,TGI,LXFL 529 NSCLC,25.9 µM
same,TGI,M14 melanoma,> 73.9 µM
same,TGI,M19-MEL melanoma,61.1 µM
same,TGI,MALME-3M melanoma,> 91.3 µM
same,TGI,MOLT-4 leukemia,> 54.4 µM
same,TGI,NCI-H226 lung,> 80.5 µM
same,TGI,NCI-H23 lung,61.6 µM
same,TGI,NCI-H460 lung,> 88.4 µM
same,TGI,NCI-H522 lung,37.2 µM
same,TGI,OVCAR-3 ovarian,31 µM
same,TGI,OVCAR-4 ovarian,> 40.3 µM
same,TGI,OVCAR-5 ovarian,> 100 µM
same,TGI,OVCAR-8 ovarian,> 86.8 µM
same,TGI,RPMI-8226 leukemia,30.4 µM
same,TGI,RXF 393 renal,52 µM
same,TGI,SF-268 CNS,> 69.4 µM
same,TGI,SF-295 CNS,> 81.2 µM
same,TGI,SF-539 CNS,> 64.7 µM
same,TGI,SK-MEL-2 melanoma,45.3 µM
same,TGI,SK-MEL-28 melanoma,52 µM
same,TGI,SK-MEL-5 melanoma,28.3 µM
same,TGI,SK-OV-3 ovarian,> 100 µM
same,TGI,SN12C renal,> 83.5 µM
same,TGI,SNB-19 CNS,> 61.7 µM
same,TGI,SNB-75 CNS,> 100 µM
same,TGI,SNB-78 CNS,92.2 µM
same,TGI,SR leukemia,> 31.6 µM
same,TGI,SW-620 colon,> 100 µM
same,TGI,TK-10 renal,> 100 µM
same,TGI,U251 CNS,> 100 µM
same,TGI,UACC-257 melanoma,75.8 µM
same,TGI,UACC-62 melanoma,52.7 µM
same,TGI,UO-31 renal,> 100 µM
same,TGI,XF 498 CNS,46.2 µM
Nc1ccn(C2OC(C(O)CO)C(O)C2O)c(=O)n1 (stereo unspecified),TGI,A498 renal,> 100 µM
same,TGI,A549 NSCLC,> 100 µM
same,TGI,ACHN renal,> 100 µM
same,TGI,CCRF-CEM leukemia,> 100 µM
same,TGI,COLO 205 colon,> 100 µM
same,TGI,DLD-1 colon,> 100 µM
same,TGI,DMS 114 small cell lung,> 100 µM
same,TGI,DMS 273 small cell lung,> 100 µM
same,TGI,EKVX NSCLC,> 100 µM
same,TGI,HCT-116 colon,> 100 µM
same,TGI,HCT-15 colon,> 100 µM
same,TGI,HL-60(TB) leukemia,> 100 µM
same,TGI,HOP-18 NSCLC,> 100 µM
same,TGI,HOP-62 NSCLC,> 100 µM
same,TGI,HOP-92 NSCLC,> 100 µM
same,TGI,K-562 leukemia,> 100 µM
same,TGI,KM20L2 colon,> 100 µM
same,TGI,LOX IMVI melanoma,> 100 µM
same,TGI,LXFL 529 NSCLC,> 100 µM
same,TGI,M14 melanoma,> 100 µM
same,TGI,MOLT-4 leukemia,> 100 µM
same,TGI,NCI-H23 lung,> 100 µM
same,TGI,NCI-H460 lung,> 100 µM
same,TGI,NCI-H522 lung,> 100 µM
same,TGI,OVCAR-8 ovarian,> 100 µM
same,TGI,RPMI-8226 leukemia,> 100 µM
same,TGI,RXF 393 renal,> 100 µM
same,TGI,RXF-631 renal,> 100 µM
same,TGI,SF-268 CNS,> 100 µM
same,TGI,SF-295 CNS,> 100 µM
same,TGI,SF-539 CNS,> 100 µM
same,TGI,SK-MEL-28 melanoma,> 100 µM
same,TGI,SK-MEL-5 melanoma,> 100 µM
same,TGI,SK-OV-3 ovarian,> 100 µM
same,TGI,SN12C renal,> 100 µM
same,TGI,SW-620 colon,> 100 µM
same,TGI,TK-10 renal,> 100 µM
same,TGI,U251 CNS,> 100 µM
same,TGI,UO-31 renal,> 100 µM
same,TGI,XF 498 CNS,> 100 µM
C=CCC1(CN(C)C)CC/C(=C\c2ccc(Cl)cc2)C1=O (stereo unspecified),TGI,786-0 renal,> 100 µM
same,TGI,A498 renal,> 100 µM
same,TGI,A549 NSCLC,> 100 µM
same,TGI,ACHN renal,> 100 µM
same,TGI,CAKI-1 renal,> 100 µM
same,TGI,CCRF-CEM leukemia,24 µM
same,TGI,COLO 205 colon,> 59.8 µM
same,TGI,DLD-1 colon,> 94.4 µM
same,TGI,DMS 114 small cell lung,> 72.2 µM
same,TGI,DMS 273 small cell lung,> 59.1 µM
same,TGI,EKVX NSCLC,> 100 µM
same,TGI,HCC-2998 colon,> 70.5 µM
same,TGI,HCT-116 colon,> 94.5 µM
same,TGI,HCT-15 colon,58.4 µM
same,TGI,HL-60(TB) leukemia,74.4 µM
same,TGI,HOP-18 NSCLC,> 100 µM
same,TGI,HOP-62 NSCLC,> 100 µM
same,TGI,HOP-92 NSCLC,> 100 µM
same,TGI,HT29 colon,60.1 µM
same,TGI,IGROV1 ovarian,> 31.6 µM
same,TGI,K-562 leukemia,76.3 µM
same,TGI,KM12 colon,> 78.5 µM
same,TGI,KM20L2 colon,> 67.4 µM
same,TGI,LOX IMVI melanoma,52 µM
same,TGI,LXFL 529 NSCLC,> 74.8 µM
same,TGI,M14 melanoma,> 64.9 µM
same,TGI,M19-MEL melanoma,> 92.7 µM
same,TGI,MALME-3M melanoma,> 100 µM
same,TGI,MOLT-4 leukemia,53 µM
same,TGI,NCI-H226 lung,> 100 µM
same,TGI,NCI-H23 lung,> 100 µM
same,TGI,NCI-H460 lung,45.6 µM
same,TGI,NCI-H522 lung,41.9 µM
same,TGI,OVCAR-3 ovarian,> 100 µM
same,TGI,OVCAR-4 ovarian,> 94.5 µM
same,TGI,OVCAR-5 ovarian,> 100 µM
same,TGI,OVCAR-8 ovarian,> 100 µM
same,TGI,RPMI-8226 leukemia,53.6 µM
same,TGI,RXF 393 renal,> 72.9 µM
same,TGI,SF-268 CNS,> 100 µM
same,TGI,SF-295 CNS,> 85.3 µM
same,TGI,SF-539 CNS,> 83.8 µM
same,TGI,SK-MEL-2 melanoma,> 100 µM
same,TGI,SK-MEL-28 melanoma,> 100 µM
same,TGI,SK-MEL-5 melanoma,> 79.1 µM
same,TGI,SK-OV-3 ovarian,> 100 µM
same,TGI,SN12C renal,> 100 µM
same,TGI,SNB-19 CNS,> 100 µM
same,TGI,SNB-75 CNS,> 90.3 µM
same,TGI,SNB-78 CNS,> 72 µM
same,TGI,SR leukemia,20.3 µM
same,TGI,SW-620 colon,> 76.2 µM
same,TGI,TK-10 renal,> 100 µM
same,TGI,U251 CNS,> 100 µM
same,TGI,UACC-257 melanoma,54.1 µM
same,TGI,UACC-62 melanoma,> 100 µM
same,TGI,UO-31 renal,> 100 µM
same,TGI,XF 498 CNS,> 100 µM

# Source: PubChem BioAssay (NCI)
